# Results taken from PMC11044166, “Synthesis, DFT Calculations, In Silico Studies, and Antimicrobial Evaluation of Benzimidazole-Thiadiazole Derivatives” (ACS Omega, 2024).
# Like-named read-outs stand apart in the source and are kept apart here.
# Assays:
# C. albicans (ATCC 24433) = experiment: Antifungal microdilution MIC; assay type: cell-based; conditions: Candida albicans, ATCC24433
# Procedure: (§1) The antifungal and antibacterial activities of the synthesized compounds (5a–i) were evaluated in vitro against E. coli (ATCC 25922), S. marcescens (ATCC 8100), K. pneumoniae (ATCC 13883), P. aeruginosa (ATCC 27853), E. faecalis (ATCC 2942), B. subtilis, S. aureus (ATCC 29213), S. epidermidis (ATCC 12228), C. albicans (ATCC 24433), C. krusei (ATCC 6258), and C. parapsilosis (ATCC 22019). The final synthesized compounds were evaluated as antibacterial and antifungal references, in comparison to azithromycin, voriconazole, and fluconazole. Tables 1 and 2 provide a summary of the antimicrobial activity test results and the minimum inhibitory concentrations (MICs) of the compounds (5a–i).
# (§2) The antimicrobial activity of the final compounds (5a–i) was screened against eight species of pathogenic bacteria and […] (E. coli (ATCC 25922), S. marcescens (ATCC 8100), K. pneumonia (ATCC 13883), P. aeruginosa (ATCC 27853), E. faecalis (ATCC 2942), B. subtilis (NRRL NRS 744), S. aureus (ATCC 29213), S. epidermidis (ATCC 12228), C. albicans (ATCC 24433), C. glabrata (ATCC 90030), C. krusei (ATCC 6258), and C. parapsilosis (ATCC 22 019)) according to the microdilution standard methods CLSI M07-A9 (2012) and NCCLS M27-A2 (2002), as described in the previous study.[25],[26]
# C. krusei (ATCC 6258) = experiment: Antifungal microdilution MIC; assay type: cell-based; conditions: Pichia kudriavzevii, ATCC6258
# Procedure: as §1, §2
# [1] = test system: C. parapsilosis (ATCC 22019); experiment: Antifungal microdilution MIC; assay type: cell-based; conditions: Lodderomyces parapsilosis, ATCC22019
# Procedure: as §1, §2
# B. subtilis = experiment: Antibacterial microdilution MIC; assay type: cell-based; conditions: Bacillus subtilis
# Procedure: as §1, §2
# E. coli (ATCC 25922) = experiment: Antibacterial microdilution MIC; assay type: cell-based; conditions: Escherichia coli, ATCC25922
# Procedure: as §1, §2
# E. faecalis (ATCC 2942) = experiment: Antibacterial microdilution MIC; assay type: cell-based; conditions: Enterococcus faecalis, ATCC2942
# Procedure: as §1, §2
# [2] = test system: K. pneumoniae (ATCC 13883); experiment: Antibacterial microdilution MIC; assay type: cell-based; conditions: Klebsiella pneumoniae, ATCC13883
# Procedure: as §1, §2
# [3] = test system: P. aeruginosa (ATCC 27853); experiment: Antibacterial microdilution MIC; assay type: cell-based; conditions: Pseudomonas aeruginosa, ATCC27853
# Procedure: as §1, §2
# S. aureus (ATCC 29213) = experiment: Antibacterial microdilution MIC; assay type: cell-based; conditions: Staphylococcus aureus, ATCC29213
# Procedure: as §1, §2
# [4] = test system: S. epidermidis (ATCC 12228); experiment: Antibacterial microdilution MIC; assay type: cell-based; conditions: Staphylococcus epidermidis, ATCC12228
# Procedure: as §1, §2
# [5] = test system: S. marcescens (ATCC 8100); experiment: Antibacterial microdilution MIC; assay type: cell-based; conditions: Serratia marcescens, ATCC8100
# Procedure: as §1, §2
# [6] = test system: L929 fibroblast cell line; experiment: Cytotoxicity MTT assay on healthy cells; assay type: cell-based; conditions: L929 healthy mouse fibroblast cells
# Procedure: The effect of the compounds between 5a–i on the viability of the L929 cell line was analyzed by MTT assay. The MTT method was performed as previously described.[27]
# [7] = C. albicans (ATCC 24433), read-out: MIC
# [8] = C. krusei (ATCC 6258), read-out: MIC
# [9] = C. parapsilosis (ATCC 22019), read-out: MIC
# [10] = F: B. subtilis, Gram-positive, read-out: MIC
# [11] = A: E. coli (ATCC 25922), Gram-negative, read-out: MIC
# [12] = E: E. faecalis (ATCC 2942), Gram-positive, read-out: MIC
# [13] = C: K. pneumoniae (ATCC 13883), Gram-negative, read-out: MIC
# [14] = D: P. aeruginosa (ATCC 27853), Gram-negative, read-out: MIC
# [15] = G: S. aureus (ATCC 29213), Gram-positive, read-out: MIC
# [16] = H: S. epidermidis (ATCC 12228), Gram-positive, read-out: MIC
# [17] = B: S. marcescens (ATCC 8100), Gram-negative, read-out: MIC
SMILES,MIC (C. albicans (ATCC 24433); [7]),MIC (C. krusei (ATCC 6258); [8]),"MIC [1, 9]",MIC (B. subtilis; [10]),MIC (E. coli (ATCC 25922); [11]),MIC (E. faecalis (ATCC 2942); [12]),"MIC [2, 13]","MIC [3, 14]",MIC (S. aureus (ATCC 29213); [15]),"MIC [4, 16]","MIC [5, 17]",IC50 [6],melting point,further results
"c1ccc2[nH]c(-c3ccc(-c4nnc(NC5CCCCC5)s4)cc3)nc2c1 [Compound 5e, N-Cyclohexyl-5-(4-(1H-Benzo[d]imidazole-2-Yl)phenyl)-1,3,4-Thiadiazole-2-Amine]",7.81 µg/mL,125 µg/mL,125 µg/mL,250 µg/mL,125 µg/mL,15.6 µg/mL,125 µg/mL,125 µg/mL,125 µg/mL,7.81 µg/mL,125 µg/mL,102 ± 12 µM,276.5 °C,
"CC(C)CNc1nnc(-c2ccc(-c3nc4ccccc4[nH]3)cc2)s1 [Compound 5i, N-Isobutyl-5-(4-(1H-Benzo[d]imidazole-2-Yl)phenyl)-1,3,4-Thiadiazole-2-Amine]",31.2 µg/mL,125 µg/mL,125 µg/mL,125 µg/mL,125 µg/mL,15.6 µg/mL,62.5 µg/mL,31.2 µg/mL,62.5 µg/mL,62.5 µg/mL,62.5 µg/mL,,315.6 °C,
"CCCNc1nnc(-c2ccc(-c3nc4ccccc4[nH]3)cc2)s1 [Compound 5g, N-Propyl-5-(4-(1H-Benzo[d]imidazole-2-Yl)phenyl)-1,3,4-Thiadiazole-2-Amine]",7.81 µg/mL,125 µg/mL,125 µg/mL,125 µg/mL,125 µg/mL,15.6 µg/mL,125 µg/mL,125 µg/mL,31.2 µg/mL,31.2 µg/mL,250 µg/mL,,275.2 °C,
"COc1ccc(Nc2nnc(-c3ccc(-c4nc5ccccc5[nH]4)cc3)s2)cc1 [Compound 5h, N-(4-Methoxyphenyl)-5-(4-(1H-Benzo[d]imidazole-2-Yl)phenyl)-1,3,4-Thiadiazole-2-Amine]",3.9 µg/mL,125 µg/mL,125 µg/mL,125 µg/mL,31.2 µg/mL,3.9 µg/mL,62.5 µg/mL,31.2 µg/mL,31.2 µg/mL,31.2 µg/mL,62.5 µg/mL,76 ± 9.4 µM,276.7 °C,
"Clc1ccccc1Nc1nnc(-c2ccc(-c3nc4ccccc4[nH]3)cc2)s1 [Compound 5d, N-(2-Chlorophenyl)-5-(4-(1H-Benzo[d]imidazole-2-Yl)phenyl)-1,3,4-Thiadiazole-2-Amine]",7.81 µg/mL,125 µg/mL,125 µg/mL,125 µg/mL,125 µg/mL,7.81 µg/mL,125 µg/mL,125 µg/mL,7.81 µg/mL,31.2 µg/mL,62.5 µg/mL,197 ± 14.7 µM,294.8 °C,
"C[C@@H](c1ncncc1F)[C@](O)(Cn1cncn1)c1ccc(F)cc1F [voriconazole, reference compound]",3.9 µg/mL,3.9 µg/mL,3.9 µg/mL,,,,,,,,,,,
"CC[C@H]1OC(=O)[C@H](C)[C@@H](O[C@H]2C[C@@](C)(OC)[C@@H](O)[C@H](C)O2)[C@H](C)[C@@H](O[C@@H]2O[C@H](C)C[C@H](N(C)C)[C@H]2O)[C@](C)(O)C[C@@H](C)CN(C)[C@H](C)[C@@H](O)[C@]1(C)O [azithromycin, reference compound]",,,,< 0.97 µg/mL,< 0.97 µg/mL,< 0.97 µg/mL,< 0.97 µg/mL,< 0.97 µg/mL,< 0.97 µg/mL,< 0.97 µg/mL,< 0.97 µg/mL,,,
"CNc1nnc(-c2ccc(-c3nc4ccccc4[nH]3)cc2)s1 [Compound 5a, N-Methyl-5-(4-(1H-Benzo[d]imidazole-2-Yl)phenyl)-1,3,4-Thiadiazole-2-Amine]",31.2 µg/mL,125 µg/mL,125 µg/mL,125 µg/mL,250 µg/mL,3.9 µg/mL,125 µg/mL,62.5 µg/mL,7.81 µg/mL,7.81 µg/mL,62.5 µg/mL,152 ± 3.64 µM,325.6 °C,
"OC(Cn1cncn1)(Cn1cncn1)c1ccc(F)cc1F [fluconazole, reference compound]",7.81 µg/mL,7.81 µg/mL,7.81 µg/mL,,,,,,,,,,,
"CCNc1nnc(-c2ccc(-c3nc4ccccc4[nH]3)cc2)s1 [Compound 5b, N-Ethyl-5-(4-(1H-Benzo[d]imidazole-2-Yl)phenyl)-1,3,4-Thiadiazole-2-Amine]",7.81 µg/mL,31.2 µg/mL,15.6 µg/mL,125 µg/mL,62.5 µg/mL,3.9 µg/mL,62.5 µg/mL,62.5 µg/mL,31.2 µg/mL,31.2 µg/mL,62.5 µg/mL,119 ± 9.64 µM,321.6 °C,
"CC(C)Nc1nnc(-c2ccc(-c3nc4ccccc4[nH]3)cc2)s1 [Compound 5f, N-Isopropyl-5-(4-(1H-Benzo[d]imidazole-2-Yl)phenyl)-1,3,4-Thiadiazole-2-Amine]",3.9 µg/mL,125 µg/mL,125 µg/mL,125 µg/mL,125 µg/mL,3.9 µg/mL,125 µg/mL,125 µg/mL,62.5 µg/mL,3.9 µg/mL,125 µg/mL,175 ± 3.02 µM,324.7 °C,
"ClCCNc1nnc(-c2ccc(-c3nc4ccccc4[nH]3)cc2)s1 [Compound 5c, N-(2-Chloroethyl)-5-(4-(1H-Benzo[d]imidazole-2-Yl)phenyl)-1,3,4-Thiadiazole-2-Amine]",,,,,,,,,,,,,191.2 °C,MIC (C. albicans (ATCC 24433)): 31.2 µg/mL; MIC (C. krusei (ATCC 6258)): 125 µg/mL; MIC [1]: 125 µg/mL; MIC (B. subtilis): 62.5 µg/mL; MIC (E. coli (ATCC 25922)): 62.5 µg/mL; MIC (E. faecalis (ATCC 2942)): 15.6 µg/mL; MIC [2]: 62.5 µg/mL; MIC [3]: 125 µg/mL; MIC (S. aureus (ATCC 29213)): 31.2 µg/mL; MIC [4]: 31.2 µg/mL; MIC [5]: 62.5 µg/mL
